In US9725460B2, “Oridonin analogs, compositions, and methods related thereto” (THE BOARD OF REGENTS OF THE UNIVERSITY OF TEXAS SYSTEM, priority 2013, dated 2017):
≈ marks a conversion by molar mass, not a printed value. Where two headings read alike, the source gives them in different places.

Tests used:
MCF-7 = assay: MTT cancer cell proliferation assay, MCF-7; format: cell-based, human; conditions: Homo sapiens
Procedure: (§1) In Vitro Determination of Effects of Synthesized Diterpenoids on Cancer Cell Proliferation. Breast cancer cell lines MCF-7, MDA-MB-231, […] and MCF/ADR were seeded in 96-well plates at a density of 1×10^4 cells/well and treated with DMSO and 0.01, 0.1, 1, 5, 10, and 100 μM of individual compound for 48 h, and then 20 μL of 3-(4,5-dimethylthiazol-2-yl)-2,5-diphenyltetrazolium bromide (MTT) (5 mg/mL in PBS) was added to each well and further incubated for another 4 h. Then MTT solution was removed, and 150 μL of DMSO was added to each well. Absorbance of all wells was determined by measuring OD at 550 nm after a 10 min incubation on a 96-well GlowMaxate absorbance reader (Promega, Madison, Wis.). Each individual compound was tested in quadruplicate wells for each concentration.
(§2) The growth inhibitory effects of the newly generated pyran-fused diterpenoids were evaluated in four breast cancer cell lines MCF-7 (ER-positive), MDAMB-231 (ER-negative and triple-negative), MDA-MB-468 (ER-negative and triple-negative) as well as MCF-7/ADR (adriamycin-resistant) using MTT assays as described in the Experimental Section.

MDA-MB-231 = assay: MTT cancer cell proliferation assay, MDA-MB-231; format: cell-based, human; conditions: Homo sapiens
Procedure: as §1, §2

AsPC1 = assay: Cancer cell proliferation assay, AsPC1; format: cell-based; conditions: Homo sapiens
Procedure: (§3) In Vitro Determination of Effects of Synthesized Diterpenoids on Cancer Cell Proliferation. […] Then MTT solution was removed, and 150 μL of DMSO was added to each well. Absorbance of all wells was determined by measuring OD at 550 nm after a 10 min incubation on a 96-well GlowMaxate absorbance reader (Promega, Madison, Wis.). Each individual compound was tested in quadruplicate wells for each concentration.

Panc-1 = assay: Cancer cell proliferation assay, Panc-1; format: cell-based; conditions: Homo sapiens
Procedure: as §3

DU145 = assay: Cancer cell proliferation assay, DU145; format: cell-based; conditions: Homo sapiens
[1] = tested on: breast, pancreatic, and prostate cancer cell lines; assay: Anti-proliferation effects against cancer cell lines; format: cell-based, human; conditions: summary of Tables 1 and 2
Procedure: as §1

Aqueous solubility = format: physicochemical; conditions: for solubility: water; for Aqueous solubility compared with oridonin: FIG. 2
MDA-MB-468 = assay: MTT cancer cell proliferation assay, MDA-MB-468; format: cell-based, human; conditions: Homo sapiens, MDA-MB-468, 48 h, Table 3; pyran-fused diterpenoids; MTT 48 h; mean ± SE of three experiments
Procedure: as §1
as §2, with “Section. The capability of these new molecules to inhibit the growth of cancer cells was summarized in Table 3 and compared with that of adriamycin and 1 spontaneously.” for “Section.”

MCF-7/ADR = assay: MTT growth inhibition, drug-resistant MCF-7/ADR; format: cell-based, human; conditions: Homo sapiens, NCI/ADR-RES, 48 h, Table 3; adriamycin-resistant; MTT 48 h; mean ± SE of three experiments
Procedure: as §1
as §2, with “Section. The capability of these new molecules to inhibit the growth of cancer cells was summarized in Table 3 and compared with that of adriamycin and 1 spontaneously.” for “Section.”

[2] = MCF7, Table 1a, breast cancer, read-out: IC50 (μM) MCF-7
[3] = MCF7, Table 2b, mean of at least three experiments, read-out: Effect on proliferation MCF-7 (ER positive) (IC50)
[4] = MDA-MB-231, Table 1a, breast cancer, read-out: IC50 (μM) MDA-MB-231
[5] = MDA-MB-231, Table 2b, mean of at least three experiments, read-out: Effect on proliferation MDA-MB-231 (ER negative) (IC50)
[6] = ASPC1, Table 1a, pancreatic cancer, read-out: IC50 (μM) AsPC1
[7] = ASPC1, Table 2b, mean of at least three experiments, read-out: Effect on proliferation AsPC1 (IC50)
[8] = PANC-1, Table 1a, pancreatic cancer, read-out: IC50 (μM) Panc-1
[9] = PANC-1, Table 2b, mean of at least three experiments, read-out: Effect on proliferation Panc-1 (IC50)
[10] = DU-145, Table 1a, prostate cancer, read-out: IC50 (μM) DU145
[11] = DU-145, Table 2b, mean of at least three experiments, read-out: Effect on proliferation DU145 (IC50)
[12] = in the form of HCl salt, read-out: Aqueous solubility (saturated concentration)

| Compound | IC50 (MCF-7; [2]) [µM] | IC50 (MCF-7; [3]) [µM] | IC50 (MDA-MB-231; [4]) [µM] | IC50 (MDA-MB-231; [5]) [µM] | IC50 (AsPC1; [6]) [µM] | IC50 (AsPC1; [7]) [µM] | IC50 (Panc-1; [8]) [µM] | IC50 (Panc-1; [9]) [µM] | IC50 (DU145; [10]) [µM] | IC50 (DU145; [11]) [µM] | IC50 values, anti-proliferation effects against cancer cell lines [1] | solubility (Aqueous solubility; [12]) [mg/mL] | further results |
| --- | --- | --- | --- | --- | --- | --- | --- | --- | --- | --- | --- | --- | --- |
| C=C1C(=O)[C@@]23C(CC[C@H]1[C@H]2O)[C@@]12CO[C@]3(O)[C@@H](O)C1C(C)(C)Cc1sc(NC3CCCCC3)nc12 (stereo partly drawn) [CYD-6-17-2, (6S,7S,7aR,10R,12bR,15R)-2-(cyclohexylamino)-6,7,15-trihydroxy-5,5-dimethyl-9-methylene-5,5a,6,7,10,11,12,12a-octahydro-4H-7,12b-(epoxymethano)-7a,10-methanocyclohepta[7,8]naphtho[1,2-d]thiazol-8(9H)-one] | 0.94 | 0.9 | 0.83 | 0.8 | 1.65 | 1.7 | 3.74 | 3.7 | 1.82 | 1.8 | low micromolar to nanomolar | – | – |
| C=C1C(=O)[C@@]23C(CCC1[C@H]2O)[C@@]12COC3(O)[C@@H](O)C1C(C)(C)Cc1sc(NCCN3CCCCC3)nc12 (stereo in doubt) [CYD-6-20, (6S,7S,7aR,10R,12bR,15R)-6,7,15-trihydroxy-5,5-dimethyl-9-methylene-2-((2-(piperidin-1-yl)ethyl)amino)-5,5a,6,7,10,11,12,12a-octahydro-4H-7,12b(epoxymethano)-7a,10-methanocyclohepta[7,8]naphtho[1,2-d]thiazol-8(9H)-one] | 1 | 1 | 1.83 | 1.8 | 1.1 | 1.1 | 1.54 | 1.5 | 1.16 | 1.2 | – | > 100 | – |
| C=C1C(=O)[C@]23[C@H](O)[C@H]1CC[C@H]2[C@@]12CO[C@]3(O)[C@@H](O)[C@@H]1C(C)(C)Cc1sc(NC(C)C)nc12 [CYD-6-30, (5aR,6S,7S,7aR,10S,12aS,12bR,15R)-6,7,15-trihydroxy-2-(isopropylamino)-5,5-dimethyl-9-methylene-5,5a,6,7,10,11,12,12a-octahydro-4H-7,12b-(epoxymethano)-7a,10-methanocyclohepta[7,8]naphtho[1,2-d]thiazol-8(9H)-one] | 0.82 | 0.8 | 0.28 | 0.3 | 1.45 | 1.4 | 3.27 | 3.3 | 5.31 | 5.3 | low micromolar to nanomolar | – | – |
| C=C1C(=O)[C@]23[C@H](O)[C@H]1CC[C@H]2[C@@]12CO[C@]3(O)[C@@H](O)[C@@H]1C(C)(C)Cc1sc(NC(=N)N)nc12 [CYD-6-29, 1-((5aR,6S,7S,7aR,10S,12aS,12bR,15R)-6,7,15-trihydroxy-5,5-dimethyl-9-methylene-8-oxo-5,5a,6,7,8,9,10,11,12,12a-decahydro-4H-7,12b-(epoxymethano)-7a,10-methanocyclohepta[7,8]naphtho[1,2-d]thiazol-2-yl)guanidine] | 3.43 | 3.4 | > 10 | > 10 | > 10 | > 10 | 15.4 | > 10 | 35.9 | > 10 | – | > 100 | – |
| C=C1C(=O)[C@@]23C(CC[C@H]1[C@H]2O)[C@@]12CO[C@]3(O)[C@@H](O)C1C(C)(C)Cc1sc(C)nc12 (stereo partly drawn) [CYD-6-19, (6S,7S,7aR,10R,12bR,15R)-6,7,15-trihydroxy-2,5,5-trimethyl-9-methylene-5,5a,6,7,10,11,12,12a-octahydro-4H-7,12b-(epoxymethano)-7a,10-methanocyclohepta[7,8]naphtho[1,2-d]thiazol-8(9H)-one] | – | – | – | – | – | – | – | – | – | – | – | – | IC50 (MCF-7; MCF7, read-out: Effect on proliferation MCF-7 (ER positive) (IC50)): 2.6 µM; IC50 (MCF-7; MCF7, read-out: IC50 (μM) MCF-7): 2.63 µM; IC50 (MDA-MB-231; MDA-MB-231, read-out: Effect on proliferation MDA-MB-231 (ER negative) (IC50)): 6.9 µM; IC50 (MDA-MB-231; MDA-MB-231, read-out: IC50 (μM) MDA-MB-231): 6.88 µM; IC50 (AsPC1; ASPC1, read-out: Effect on proliferation AsPC1 (IC50)): 6.5 µM; IC50 (AsPC1; ASPC1, read-out: IC50 (μM) AsPC1): 6.46 µM; IC50 (Panc-1; PANC-1, read-out: Effect on proliferation Panc-1 (IC50)): 7.8 µM; IC50 (Panc-1; PANC-1, read-out: IC50 (μM) Panc-1): 7.83 µM; IC50 (DU145; DU-145, read-out: Effect on proliferation DU145 (IC50)): 7.6 µM; IC50 (DU145; DU-145, read-out: IC50 (μM) DU145): 7.63 µM; Aqueous solubility compared with oridonin (Aqueous solubility): significantly improved solubility; solubility (Aqueous solubility; compound as such, read-out: Aqueous solubility): 4.47 mg/mL (≈ 10.7 mM) |
| C=C1C(=O)[C@]23[C@H](O)[C@H]1CC[C@H]2[C@@]12CO[C@]3(O)[C@@H](O)[C@@H]1C(C)(C)Cc1sc(NC)nc12 [CYD-5-54, (5aR,6S,7S,7aR,10S,12aS,12bR,15R)-6,7,15-trihydroxy-5,5-dimethyl-2-(methylamino)-9-methylene-5,5a,6,7,10,11,12,12a-octahydro-4H-7,12b-(epoxymethano)-7a,10-methanocyclohepta[7,8]naphtho[1,2-d]thiazol-8(9H)-one] | 1.28 | 1.3 | 2.06 | 2.1 | 1.84 | 1.8 | 2.33 | 2.3 | 4.05 | 4.1 | low micromolar to nanomolar | 81.2 | Aqueous solubility compared with oridonin (Aqueous solubility): significantly improved solubility; Improvement of aqueous solubility in comparison with oridonin (Aqueous solubility; HCl salt vs oridonin (1.29 mg/mL)): ~62 fold |
| C=C1C(=O)[C@@]23[C@@H]4OC(C)(C)O[C@@]25OC[C@]2(C6=C(CC[C@@H](OCC(C)C)O6)CC(C)(C)[C@H]2[C@@H]5O)[C@@H]3CC[C@@H]14 [CYD-8-52-2] | – | – | – | – | – | – | – | – | – | – | – | – | IC50 (MCF-7; MCF7, 48 h, Table 3, pyran-fused diterpenoids, MTT 48 h, mean ± SE of three experiments, read-out: IC50 (μM) MCF-7): 5.83 ± 3.75 µM; IC50 (MDA-MB-231; MDA-MB-231, 48 h, Table 3, pyran-fused diterpenoids, MTT 48 h, mean ± SE of three experiments, read-out: IC50 (μM) MDA-MB-231): 8.18 ± 0.57 µM; IC50 (MDA-MB-468): 6.95 ± 1.01 µM; IC50 (MCF-7/ADR): 10.3 ± 1.65 µM |
| C=C1C(=O)[C@]23[C@H](O)[C@H]1CC[C@H]2[C@@]12CO[C@]3(O)[C@@H](O)[C@@H]1C(C)(C)Cc1sc(NCCCC)nc12 [CYD-6-28, (5aR,6S ,7S,7aR,10S,12aS,12bR,15R)-2-(butylamino)-6,7,15-trihydroxy-5,5-dimethyl-9-methylene-5,5a,6,7,10,11,12,12a-octahydro-4H-7,12b-(epoxymethano)-7a,10-methanocyclohepta[7,8]naphtho[1,2-d]thiazol-8(9H)-one] | 0.59 | 0.6 | 1.06 | 1.1 | 1.39 | 1.4 | 4.01 | 4 | 4.22 | 4.2 | low micromolar to nanomolar | – | – |
